In US20050267016A1, “CD-10 activated prodrug compounds” (priority 2001, published 2005):
Where “and” joins values, the source holds several entries; their conditions need not be identical. Equal values may be shown once. Read-outs that look alike come from different tables or passages of the source. Marks after values point to notes of the source that are not given here.

What was measured:
[1] = Metabolism and clearance in normal mice (plasma and urine, LC MS/MS); format: in vivo; conditions: mouse, in vivo; for dose excreted: iv, 117 mg/kg
Description: The metabolism and clearance of Suc-Ile-Ala-Leu-Dox was studied in normal mice. The mice were administered Suc-Ile-Ala-Leu-Dox at a single intravenous bolus dose of 117 mg/kg. Plasma samples were obtained at 1 and 4 hours. Plasma samples of 100 μl were transferred to microcentrifuge tubes (1.5 mL) and an internal standard of daunorubicin (20 μL at 0.5 mg/ml) was added together with acetonitrile (400 μl). The tubes were capped and briefly vortexed followed by centrifugation at 14,000 rpm. 420 μl from each tube was removed and dried in vacuo. Each sample was reconstituted in 65 μl 20 mM aqueous ammonium formate pH 4.5 buffer (AF) containing acetonitrile (20%) prior to analysis by reverse phase liquid chromatography in combination with tandem mass spectrometry (LC MS/MS).
Urine was collected at 2 and 24 hours post administration from pairs of mice in metabolic cages. Urine samples were diluted with AF containing acetonitrile (20%) to give a target analyte concentration within the practical range of the LC MS/MS assay. 30 μl of each diluted sample was placed in an Eppendorf tube (1.5 ml) and an internal standard of daunorubicin (20 μL at 0.5 mg/ml) was added together with 50 μl of AF containing acetonitrile (20%). Each sample was then analyzed by LC MS/MS.
An Agilent HP1100 HPLC with DAD detector and Chemstation software was coupled to a PE Sciex API 365 mass spectrometer with an electrospray ion source. HPLC was performed on a TSK-Gel Super ODS, […], 4.6×50 mm (TosoHaas) reversed phase column equipped with a […] C18 guard disc (Higgins Analytical) and stainless steel frit (Upchurch Scientific). Chromatography was performed at room temperature. The flow rate was 0.5 ml/min. Injection volume was 50 μL. Gradient elution was performed using a mobile phase of 20 mM aqueous AF pH 4.5 buffer with increasing amounts of acetonitrile. The API 365 was operated at 365° C. in a multiple reaction monitoring mode, set to monitor specific analyte parent-daughter ion pairs. Integration of chromatograms was performed by MacQuant software (PE Sciex) and quantitation of each analyte obtained by comparison to previously obtained calibration curves. Daunorubicin was used as an internal standard in all cases.
For the calculation of percent of administered dose, plasma volume was estimated to be 40% of blood volume, which was calculated as 7% of animal's body weight. At 2 and 24 hours the parent compound was detected in urine at 3.9% and 15.0% of the administered dose, showing that the kidney is a major organ of excretion for the prodrug (FIG. 17).
Plasma samples were obtained at 1 and 4 hours from separate mice. Urine was collected at 2 and 24 hours post administration from pairs of mice in metabolic cages. The plasma and urine samples were prepared and analyzed as described in Example 17.

[2] = tested on: BALL-1 cells (CD10neg); experiment: cells; conditions: 24 h
Description: (§1) Suspension cells, BALL-1, Ramos and Namalwa cells were cultured in RPMI media containing 10% heat inactivated fetal calf serum (FCS). On the day of the study, the cells were collected, washed and resuspended at a concentration of 0.5×10^6 cells/ml in RPMI containing 10% FCS. 100 µl of cell suspension was added to 96 well plates. […] Finally 10 μl of a 100 μCi/ml ^3H-thymidine was added per well and the plates were incubated for 24 hours. The plates were harvested using a 96 well Harvester (Packard Instruments) and counted on a Packard Top Count counter. Four parameter logistic curves were fitted to the ^3H-thymidine incorporation as a function of drug molarity using Prism software to determine IC50 values.
(§2) The effect of two known inhibitors of CD10 on prodrug activity in Ramos, LNCaP and Ball-1 cells was evaluated. The IC50 of Suc-βAla-Ile-Ala-Leu-Dox was determined in the presence of increasing concentration of the CD10 inhibitors, phosphoramidon and thiorphan.

[3] = tested on: Ramos cells (CD10pos); experiment: cells
Description: as §1, §2

[4] = tested on: CD10 transfected CHO cells (clone 8); experiment: Conversion to Leu-Dox or Gly-Dox in cell supernatants, CD10 transfected CHO; format: cell-based, Chinese Hamster; conditions: Clone 8 (CD10 transfected), 10 μM, 37° C.
Description: (§3) To directly ask the question of whether the CD10 expressing cells were capable of cleaving the prodrug, supernatants from CD10 transfected or parental CHO cells treated with the compounds were collected. […] After incubation for 1, 4, and 24 hours, an aliquot of each supernatant was transferred to a 96-well plate and frozen at −20° C. Samples were subsequently thawed and analyzed by reversed phase HPLC (4.6×50 mm 21 TSK Super-ODS column) with fluorescence detection after dilution with 3 volumes of acetonitrile, removal of precipitate by centrifugation, and further dilution into 3 volumes of water. When incubated with Suc-βAla-Leu-Ala-Leu-Dox, there was no detectable metabolism to Leu-Dox observed with the parental cell line while clone 8 (CD10 transfected) generated significant levels of Leu-Dox from Suc-βAla-Leu-Ala-Leu-Dox (Table 27).

[5] = tested on: LNCaP human prostate carcinoma xenografts
Description: LNCaP human prostate carcinoma cells express high levels of CD10 on the surface. Suc-βAla-Leu-Ala-Leu-Dox and Suc-Leu-Ala-Gly-Dox were tested at a single dose level Q7Dx5. […] The mice were weighed and tumors were measured (by caliper) at least once a week prior to start of dosing (Day 0), then twice a week during the study. Immediately before the start of dosing (Study Day −2 to Day 0), mice were randomized to various groups based on the weight of the tumors. […] Mice were euthanized after the tumors reached a cutoff weight of 1.5 g (cancer endpoint), or when mice suffered over 25% weight loss (toxic endpoint). Studies were terminated at Day 60.

[6] = tested on: Parental CHO cells; experiment: Conversion to Leu-Dox or Gly-Dox in cell supernatants, parental CHO; format: cell-based, Chinese Hamster; conditions: 10 μM, 37° C.
Description: as §3

[7] = tested on: LNCaP xenografts; experiment: LNCaP xenograft in SCID mice, Q6DX2, equitoxic comparison (Example 27); format: in vivo, C.B-17.SCID mice
Description: All compounds except Suc-βAla-Leu-Ala-Leu-Dox (three levels) were dosed at two levels with the goal to get a dose response for all compounds.
Knowing that the LNCaP tumor bearing nude mice have weight loss, we chose very conservative dose levels for each compound estimated to be well-tolerated equitoxic doses based on earlier studies and SD-MTD results. The high dose level for repeat dosing is usually 80% of their SD-MTD, and the low dose level is 80% of the high dose level. Accordingly, groups of ten male CD17.SCID mice, subcutaneously injected with 2.5 million LNCaP cells, were treated intravenously with the compounds at the levels described in Table 22 at six day intervals for a total of two identical doses (Q6DX2).
LNCaP tumors grew well in SCID mice, but the SCID mice with LNCaP tumor xenografts experienced severe weight loss, as 80% of control mice had more than 25% of weight loss by the end of the study. Nevertheless, the efficacy of different treatments at approximately equitoxic levels were compared based on the time it took for 50% of mice to reach toxic weight loss and the total numbers of mice with toxic weight loss at the end of study.

[8] = mouse, in vivo, iv, 100 umol/kg
Description: (§5) Plasma was obtained from three individual animals in each group at 5 minutes, 1, 2, 4, or 6 hr.

[9] = tested on: Porcine Kidney CD10; experiment: Hydrolysis by purified CD10; format: biochemical
Description: Reaction products were analyzed by HPLC with fluorescence detection. Rates were essentially linear over the incubation period. The observed product was Leu-doxorubicin.

[10] = tested on: LNCaP (prostate carcinoma) cells; conditions: ratio of IC50
Description: (§4) Adherent cells, LNCaP (prostate carcinoma), HT-29 (colon carcinoma) and PC-3 (prostate carcinoma), were cultured in DMEM media containing 10% heat inactivated fetal calf serum (FCS). On the day of the study the cells were detached from the plate with a trypsin solution. The collected cells were washed and resuspended at a concentration of 0.25×10^6 cells/ml in DMEM containing 10% FCS. 100 μl of cell suspension were added to 96 well plates and the plates were incubated for 3 hours to allow the cells to adhere. […] The plates were then incubated for 24 hours, pulsed with 10 μl of a 100 μCi/ml ^3H-thymidine and incubated for an additional 24 hours (total incubation time 48 hours). The plates were harvested using a 96 well Harvester (Packard Instruments) and counted on a Packard Top Count Counter. Four parameter logistic curves were fitted to the ^3H-thymidine incorporation as a function of drug molarity using Prism software to determine IC50 values.
as §4, with “carcinoma), PC-3 (prostate” for “carcinoma), HT-29 (colon”, “and 22 RV1” for “and PC-3”, “with 1:0” for “with 10”
as §2

[11] = tested on: human colon carcinoma (HT-29) xenograft
Text: Healthy young male nude mice were subcutaneously injected with 5 million of HT-29 cells.

[12] = mouse, in vivo, iv, 100 umol/kg; remark: listed apart in the source
Description: as §5

[13] = tested on: Namalwa cells (CD10pos); experiment: cells; format: cell-based; conditions: ratio of IC50
Description: as §1

[14] = tested on: LNCaP prostate carcinoma xenograft; experiment: LNCaP prostate carcinoma xenograft in nude mice, Q7D × 3 (Examples 30, 31)
Description: In this model, 7.5 million LNCaP cells resuspended in 0.1 ml of phosphate buffered saline and 0.1 ml of Matrigel (Becton Dickinson) were injected into the side of male nude mice fed on high fat diet.

[15] = 40 mg/kg every 7 days for 5 doses
[16] = 67 mg/kg every 7 days for 5 doses

COc1cccc2c1C(=O)c1c(O)c3c(c(O)c1C2=O)C[C@@](O)(C(=O)CO)C[C@@H]3O[C@H]1C[C@H](NC(=O)[C@@H](N)CC(C)C)[C@H](O)[C@H](C)O1 [Leu-Dox]
dose excreted ([1]; Urine (% adm. dose) 2 hr): 1.17% | dose excreted ([1]; Urine (% adm. dose) 24 hr): 2.25%

COc1cccc2c1C(=O)c1c(O)c3c(c(O)c1C2=O)C[C@@](O)(C(=O)CO)C[C@@H]3O[C@H]1C[C@H](NC(=O)[C@H](CC(C)C)NC(=O)[C@H](Cc2ccc(O)cc2)NC(=O)[C@H](CC(C)C)NC(=O)CCC(=O)O)[C@H](O)[C@H](C)O1 [Suc-Leu-Tyr-Leu-Dox]
IC50 [2]: 17 µM | IC50 ([3]; 24 h): 20 µM

COc1cccc2c1C(=O)c1c(O)c3c(c(O)c1C2=O)C[C@@](O)(C(=O)CO)C[C@@H]3O[C@H]1C[C@H](NC(=O)CNC(=O)[C@H](C)NC(=O)[C@H](CC(C)C)NC(=O)CCC(=O)O)[C@H](O)[C@H](C)O1 [Suc-Leu-Ala-Gly-Dox]
Conversion rate to Leu-Dox or Gly-Dox [4]: 0.06 mM/h | Percent Conversion/Hour to Leu-Dox or Gly-Dox [4]: 0.61 Percent Conversion/Hour | Tumor Weight (mg) D12 ([5]; Dose 110 mg/kg (Table 19), Q7DX5): D12: 795 ± 177 (n = 7) mg | Toxicity (Weight Loss >25%) ([5]; Dose 110 mg/kg (Table 19), Q7DX5, mice affected/total): 1/7 | Tumor Growth Inhibition (% over control) ([5]; mouse, in vivo, 110 mg/kg): 1.4% | Ratio Ball-1:Ramos ([3]; ratio of IC50): 1 | Conversion rate to Leu-Dox or Gly-Dox [6]: 0.06 mM/h | Percent Conversion/Hour to Leu-Dox or Gly-Dox [6]: 0.57 Percent Conversion/Hour | % Weight Loss at the end of study ([7]; 110 mg/kg Q6DX2): 80% | Time: 50% Weight Loss ([7]; 110 mg/kg Q6DX2): 33 days | % Weight Loss at the end of study ([7]; 132 mg/kg Q6DX2): 80% | Time: 50% Weight Loss ([7]; 132 mg/kg Q6DX2): 29 days | AUC(0-t) [8]: 310 µM·h | % hydrolysis/10 hr ([9]; 12.5 μg/mL, 37° C., pH 7.4, product Leu-doxorubicin): 0 % hydrolysis/10 hr | Fraction hydrolyzed relative to standard ([9]; standard Suc-βAla-Leu-Ala-Leu-Dox): 0 | Ratio PC-3:LNCaP [10]: 3 | % TGI (Day 14, mean) [11, 15]: 4.0% | % TGI (Day 25, median) [11, 15]: 37.2% | Calculated Mean Day of Survival [11, 15]: 39 days and 38.8 ± 6.6 days | Mean Tumor Weight at Day 14 [11, 15]: 704 ± 92 mg | Median Tumor Weight at Day 25 [11, 15]: 952 mg | Number of Long Term Survivors [11, 15]: 1/7 | Toxicity (Weight Loss >20%) [11, 15]: 0/7 | % TGI (Day 14, mean) [11, 16]: 33.2%* | % TGI (Day 25, median) [11, 16]: 43.5% | Calculated Mean Day of Survival [11, 16]: 41 days and 41.3 ± 7.2 days | Mean Tumor Weight at Day 14 [11, 16]: 490 ± 124 mg | Median Tumor Weight at Day 25 [11, 16]: 857 mg | Number of Long Term Survivors [11, 16]: 3/7 | Toxicity (Weight Loss >20%) [11, 16]: 0/7 | Plasma AUC0-6 hr of AL-Dox or AG-Dox* [12]: 2.1 µM·h | Plasma AUC0-6 hr of L-Dox or G-Dox* [12]: 0.9 µM·h | Ratio Ball-1:Namalwa [13]: 1 | TGI D22 ([14]; 110 mg/kg (70 Dox equi) Q7D × 3): 39.7±29.5% | Survivor D36 ([14]; 110 mg/kg Q7D × 3, N 8): D36: 6* | Toxic Endpoint ([14]; 110 mg/kg Q7D × 3, >20% body weight loss): 0 | Cancer Endpoint ([14]; 110 mg/kg Q7D × 3, tumors reaching 1000 mg): 2

COc1cccc2c1C(=O)c1c(O)c3c(c(O)c1C2=O)C[C@@](O)(C(=O)CO)C[C@@H]3O[C@H]1C[C@H](NC(=O)[C@H](CC(C)C)NC(=O)[C@H](C)N)[C@H](O)[C@H](C)O1 [Ala-Leu-Dox]
Plasma (% adm. dose) 1 hr [1]: 0.00 % adm. dose | Plasma (% adm. dose) 4 hr [1]: 0.00 % adm. dose | dose excreted ([1]; Urine (% adm. dose) 2 hr): 0% | dose excreted ([1]; Urine (% adm. dose) 24 hr): 0%
